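Here, GI50 denotes the concentration required for 50% inhibition of growth. TGI: total growth inhibition.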
Experiments:
Assay in all cases: DTP human tumour cell line panel, 384-well format
NCI-H226 lung = test system: NCI-H226 lung
SK-MEL-28 melanoma = test system: SK-MEL-28 melanoma
TK-10 renal = test system: TK-10 renal
CCRF-CEM leukemia = test system: CCRF-CEM leukemia
OVCAR-8 ovarian = test system: OVCAR-8 ovarian
NCI/ADR-RES ovarian = test system: NCI/ADR-RES ovarian
DU-145 prostate = test system: DU-145 prostate
MDA-MB-435 melanoma = test system: MDA-MB-435 melanoma
MCF7 breast = test system: MCF7 breast
NCI-H23 lung = test system: NCI-H23 lung
SK-OV-3 ovarian = test system: SK-OV-3 ovarian
HS 578T breast = test system: HS 578T breast
OVCAR-3 ovarian = test system: OVCAR-3 ovarian
SW-620 colon = test system: SW-620 colon
HCC-2998 colon = test system: HCC-2998 colon
ACHN renal = test system: ACHN renal
HCT-116 colon = test system: HCT-116 colon
786-0 renal = test system: 786-0 renal
BT-549 breast = test system: BT-549 breast
U251 glioblastoma = test system: U251 glioblastoma
SK-MEL-5 melanoma = test system: SK-MEL-5 melanoma
CAKI-1 renal = test system: CAKI-1 renal
MALME-3M melanoma = test system: MALME-3M melanoma
COLO 205 colon = test system: COLO 205 colon
UACC-62 melanoma = test system: UACC-62 melanoma
HCT-15 colon = test system: HCT-15 colon
LOX IMVI melanoma = test system: LOX IMVI melanoma
KM12 colon = test system: KM12 colon
OVCAR-4 ovarian = test system: OVCAR-4 ovarian
SN12C renal = test system: SN12C renal
OVCAR-5 ovarian = test system: OVCAR-5 ovarian
UACC-257 melanoma = test system: UACC-257 melanoma
NCI-H522 lung = test system: NCI-H522 lung
HL-60(TB) leukemia = test system: HL-60(TB) leukemia
MDA-MB-468 breast = test system: MDA-MB-468 breast
K-562 leukemia = test system: K-562 leukemia
SNB-75 CNS = test system: SNB-75 CNS
HOP-92 NSCLC = test system: HOP-92 NSCLC
T-47D breast = test system: T-47D breast
UO-31 renal = test system: UO-31 renal
RXF 393 renal = test system: RXF 393 renal
A549 NSCLC = test system: A549 NSCLC
NCI-H322M lung = test system: NCI-H322M lung
SF-295 CNS = test system: SF-295 CNS
EKVX NSCLC = test system: EKVX NSCLC
SF-268 CNS = test system: SF-268 CNS
HT29 colon = test system: HT29 colon
SNB-19 CNS = test system: SNB-19 CNS
SF-539 CNS = test system: SF-539 CNS
NCI-H460 NSCLC = test system: NCI-H460 NSCLC
RPMI-8226 leukemia = test system: RPMI-8226 leukemia
A498 renal = test system: A498 renal
HOP-62 NSCLC = test system: HOP-62 NSCLC
MOLT-4 leukemia = test system: MOLT-4 leukemia
PC-3 prostate = test system: PC-3 prostate
MDA-MB-231 breast = test system: MDA-MB-231 breast
IGROV1 ovarian = test system: IGROV1 ovarian
M14 melanoma = test system: M14 melanoma

COc1cc2c(NC3CCN(C(C)C)CC3)nc(C3CCCCC3)nc2cc1OCCCN1CCCC1
GI50 (NCI-H226 lung): 1.79 µM
TGI (NCI-H226 lung): 3.94 µM
GI50 (SK-MEL-28 melanoma): 1.26 µM
TGI (SK-MEL-28 melanoma): 2.53 µM
GI50 (TK-10 renal): 1.28 µM
TGI (TK-10 renal): 2.56 µM
GI50 (CCRF-CEM leukemia): 0.205 µM
TGI (CCRF-CEM leukemia): 0.397 µM
GI50 (OVCAR-8 ovarian): 1.54 µM
TGI (OVCAR-8 ovarian): 2.91 µM
GI50 (NCI/ADR-RES ovarian): 69 µM
TGI (NCI/ADR-RES ovarian): > 100 µM
GI50 (DU-145 prostate): 1.23 µM
TGI (DU-145 prostate): 4.29 µM
GI50 (MDA-MB-435 melanoma): 1.16 µM
TGI (MDA-MB-435 melanoma): 2.4 µM
GI50 (MCF7 breast): 1.11 µM
TGI (MCF7 breast): 2.4 µM
GI50 (NCI-H23 lung): 1.95 µM
TGI (NCI-H23 lung): 4.65 µM
GI50 (SK-OV-3 ovarian): 1.41 µM
TGI (SK-OV-3 ovarian): 2.97 µM
GI50 (HS 578T breast): 1.75 µM
TGI (HS 578T breast): 3.14 µM
GI50 (OVCAR-3 ovarian): 0.835 µM
TGI (OVCAR-3 ovarian): 2.08 µM
GI50 (SW-620 colon): 1.55 µM
TGI (SW-620 colon): 2.91 µM
GI50 (HCC-2998 colon): 1.56 µM
TGI (HCC-2998 colon): 3.01 µM
GI50 (ACHN renal): 1.79 µM
TGI (ACHN renal): 3.8 µM
GI50 (HCT-116 colon): 0.55 µM
TGI (HCT-116 colon): 1.75 µM
GI50 ([…]-0 renal): 1.35 µM
TGI (786-0 renal): 2.65 µM
GI50 (BT-549 breast): 0.378 µM
TGI (BT-549 breast): 1.34 µM
GI50 (U251 glioblastoma): 1.03 µM
TGI (U251 glioblastoma): 2.2 µM
GI50 (SK-MEL-5 melanoma): 0.873 µM
TGI (SK-MEL-5 melanoma): 2.12 µM
GI50 (CAKI-1 renal): 1.39 µM
TGI (CAKI-1 renal): 2.72 µM
GI50 (MALME-3M melanoma): 1.37 µM
TGI (MALME-3M melanoma): 2.68 µM
GI50 (COLO 205 colon): 1.33 µM
TGI (COLO 205 colon): 2.64 µM
GI50 (UACC-62 melanoma): 1.75 µM
TGI (UACC-62 melanoma): 3.15 µM
GI50 (HCT-15 colon): 1.24 µM
TGI (HCT-15 colon): 5.2 µM
GI50 (LOX IMVI melanoma): 1.45 µM
TGI (LOX IMVI melanoma): 2.79 µM
GI50 (KM12 colon): 0.991 µM
TGI (KM12 colon): 2.52 µM
GI50 (OVCAR-4 ovarian): 1.12 µM
TGI (OVCAR-4 ovarian): 2.44 µM
GI50 (SN12C renal): 1.12 µM
TGI (SN12C renal): 2.95 µM
GI50 (OVCAR-5 ovarian): 1.97 µM
TGI (OVCAR-5 ovarian): 4.26 µM
GI50 (UACC-257 melanoma): 1.25 µM
TGI (UACC-257 melanoma): 2.51 µM
GI50 (NCI-H522 lung): 0.634 µM
TGI (NCI-H522 lung): 1.83 µM
GI50 (HL-60(TB) leukemia): 0.429 µM
TGI (HL-60(TB) leukemia): 1.07 µM
GI50 (MDA-MB-468 breast): 0.262 µM
TGI (MDA-MB-468 breast): 0.587 µM
GI50 (K-562 leukemia): 0.484 µM
TGI (K-562 leukemia): 1.74 µM
GI50 (SNB-75 CNS): 1.4 µM
TGI (SNB-75 CNS): 2.71 µM
GI50 (HOP-92 NSCLC): 1.2 µM
TGI (HOP-92 NSCLC): 2.46 µM
GI50 (T-47D breast): 0.573 µM
TGI (T-47D breast): 1.83 µM
GI50 (UO-31 renal): 1.32 µM
TGI (UO-31 renal): 2.72 µM
GI50 (RXF 393 renal): 0.347 µM
TGI (RXF 393 renal): 1.4 µM
GI50 (A549 NSCLC): 1.56 µM
TGI (A549 NSCLC): 3 µM
GI50 (NCI-H322M lung): 1.49 µM
TGI (NCI-H322M lung): 3.01 µM
GI50 (SF-295 CNS): 1.8 µM
TGI (SF-295 CNS): 3.21 µM
GI50 (EKVX NSCLC): 0.807 µM
TGI (EKVX NSCLC): 2.86 µM
GI50 (SF-268 CNS): 0.307 µM
TGI (SF-268 CNS): 1.52 µM
GI50 (HT29 colon): 0.285 µM
TGI (HT29 colon): 1.11 µM
GI50 (SNB-19 CNS): 1.23 µM
TGI (SNB-19 CNS): 3.1 µM
GI50 (SF-539 CNS): 0.292 µM
TGI (SF-539 CNS): 0.937 µM
GI50 (NCI-H460 NSCLC): 0.365 µM
TGI (NCI-H460 NSCLC): 1.04 µM
GI50 (RPMI-8226 leukemia): 0.368 µM
TGI (RPMI-8226 leukemia): 1.13 µM
GI50 (A498 renal): 0.683 µM
TGI (A498 renal): 1.96 µM
GI50 (HOP-62 NSCLC): 1.71 µM
TGI (HOP-62 NSCLC): 3.14 µM
GI50 (MOLT-4 leukemia): 0.552 µM
TGI (MOLT-4 leukemia): 1.91 µM
GI50 (PC-3 prostate): 1.43 µM
TGI (PC-3 prostate): 4.16 µM
GI50 (MDA-MB-231 breast): 1.61 µM
TGI (MDA-MB-231 breast): 3.34 µM
GI50 (IGROV1 ovarian): 1.53 µM
TGI (IGROV1 ovarian): 11.3 µM
GI50 (M14 melanoma): 1.74 µM
TGI (M14 melanoma): 3.14 µM

Source: PubChem BioAssay (NCI)
